In paper PMC6915887, “Inhibition of human carboxylesterases by ginsenosides: structure–activity relationships and inhibitory mechanism” (Chinese Medicine, 2019):
Read-outs that look alike come from different tables or passages of the source.

Key:
hCES1A = target: T1, hCES1A (Homo sapiens, UniProt P23141); assay: hCES1A inhibition assay (DME hydrolysis in HLM); assay type: biochemical; settings: for inhibition of hCES1A-mediated DME hydrolysis (residual activity screen): HLM, ginsenoside 100 μM, result in words;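 as to all read-outs here: Read-out is D-luciferin luminescence formed from DME (3 µM) after 10 min at 37 °C in pH 6.5 PBS, HLM 1 µg/mL, inhibitor preincubated 3 min, oleanic acid as positive control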
T1 construct: tissue Bioreclamation IVT lot no; X008067; host or cells: pooled human liver microsomes (50 donors)
T1 sequence (P23141 18-567): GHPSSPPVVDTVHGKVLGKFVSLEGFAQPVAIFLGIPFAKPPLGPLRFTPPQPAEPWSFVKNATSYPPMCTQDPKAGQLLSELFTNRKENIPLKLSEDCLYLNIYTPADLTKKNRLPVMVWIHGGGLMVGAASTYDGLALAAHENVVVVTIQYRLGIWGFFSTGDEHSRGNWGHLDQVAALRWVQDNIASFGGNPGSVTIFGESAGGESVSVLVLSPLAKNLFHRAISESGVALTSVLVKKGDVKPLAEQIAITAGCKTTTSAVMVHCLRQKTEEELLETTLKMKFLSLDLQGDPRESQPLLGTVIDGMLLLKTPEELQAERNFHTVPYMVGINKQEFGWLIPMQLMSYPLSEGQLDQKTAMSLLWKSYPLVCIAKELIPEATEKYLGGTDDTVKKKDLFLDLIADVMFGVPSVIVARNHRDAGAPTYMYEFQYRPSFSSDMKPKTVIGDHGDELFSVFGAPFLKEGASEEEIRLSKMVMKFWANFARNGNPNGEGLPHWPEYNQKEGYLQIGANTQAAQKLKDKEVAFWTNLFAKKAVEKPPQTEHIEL

hCES2A = target: T2, hCES2A (Homo sapiens, UniProt O00748); assay: hCES2A inhibition assay (FD hydrolysis in HLM); assay type: biochemical; settings: for Specificity (hCES1A/hCES2A): ratio of IC50 values in HLM; for inhibition of hCES2A-mediated FD hydrolysis (residual activity screen): HLM, ginsenoside 100 μM, result in words;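 as to all read-outs here: HLM at 1 µg/mL in 0.1 M PBS pH 7.4, kinetic read at 37 °C every 30 s over 30 min, triplicate runs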
T2 construct: tissue Bioreclamation IVT lot no; X008067; host or cells: pooled human liver microsomes (50 donors)
T2 sequence (O00748 27-559): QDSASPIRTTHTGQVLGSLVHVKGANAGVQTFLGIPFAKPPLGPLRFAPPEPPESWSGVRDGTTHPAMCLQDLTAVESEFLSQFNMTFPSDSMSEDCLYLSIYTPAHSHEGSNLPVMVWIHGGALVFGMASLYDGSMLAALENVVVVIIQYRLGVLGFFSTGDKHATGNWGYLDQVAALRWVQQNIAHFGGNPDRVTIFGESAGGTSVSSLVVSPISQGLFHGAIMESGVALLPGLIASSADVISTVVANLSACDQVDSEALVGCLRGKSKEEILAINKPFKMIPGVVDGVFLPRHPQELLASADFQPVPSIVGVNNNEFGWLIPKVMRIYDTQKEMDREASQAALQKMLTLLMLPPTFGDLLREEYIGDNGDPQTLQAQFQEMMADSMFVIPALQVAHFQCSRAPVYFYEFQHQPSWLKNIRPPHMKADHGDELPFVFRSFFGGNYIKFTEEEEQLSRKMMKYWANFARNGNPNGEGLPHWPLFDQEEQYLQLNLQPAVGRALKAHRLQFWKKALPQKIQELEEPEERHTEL

[1] = HLM as enzyme source, DME hydrolysis as probe reaction, read-out: IC50 (μM) hCES1A
[2] = HLM as enzyme source, FD hydrolysis as probe reaction, read-out: IC50 (μM) hCES2A

| SMILES | IC50 (hCES1A; [1]) [µM] | Specificity (hCES1A/hCES2A) (hCES2A) | inhibition of hCES2A-mediated FD hydrolysis (residual activity screen) (hCES2A) | IC50 (hCES2A; [2]) [µM] | other results |
| --- | --- | --- | --- | --- | --- |
| CC(C)=CCC[C@](C)(O[C@@H]1O[C@H](CO)[C@@H](O)[C@H](O)[C@H]1O)[C@H]1CC[C@]2(C)[C@@H]1[C@H](O)C[C@@H]1[C@@]3(C)CC[C@H](O)C(C)(C)[C@@H]3CC[C@]12C [C-K, ginsenoside C-K] | > 100 | – | – | – | – |
| CC(C)=CCC[C@](C)(O[C@@H]1O[C@H](CO)[C@@H](O)[C@H](O)[C@H]1O)[C@H]1CC[C@]2(C)[C@@H]1[C@H](O)C[C@@H]1[C@@]3(C)CC[C@H](O)C(C)(C)[C@@H]3[C@@H](O)C[C@]12C [F1, ginsenoside F1] | > 100 | > 2.70 | – | – | – |
| CC(C)=CCC[C@](C)(O[C@@H]1O[C@H](CO)[C@@H](O)[C@H](O)[C@H]1O)[C@H]1CC[C@]2(C)[C@@H]1[C@H](O)C[C@@H]1[C@@]3(C)CC[C@H](O[C@@H]4O[C@H](CO)[C@@H](O)[C@H](O)[C@H]4O)C(C)(C)[C@@H]3CC[C@]12C [F2] | > 100 | – | – | – | – |
| CC(C)=CC/C=C(/C)C1CC[C@]2(C)C1[C@H](O)CC1[C@@]3(C)CC[C@H](O)C(C)(C)C3[C@@H](O[C@@H]3O[C@H](CO)[C@@H](O)[C@H](O)[C@H]3O[C@@H]3O[C@@H](C)[C@H](O)[C@@H](O)[C@H]3O)C[C@]12C (some centres unmarked) [F4] | > 100 | > 2.22 | – | – | – |
| CC1(C)CCC[C@](C)([C@H]2CC[C@]3(C)[C@@H]2[C@H](O)C[C@@H]2[C@@]4(C)CC[C@H](O)C(C)(C)[C@@H]4CC[C@]23C)O1 [Panaxadiol, panaxadiol] | 6.95 ± 1.29 | 1.84 | strong or moderate inhibition | – | – |
| CC1(C)CCC[C@](C)([C@H]2CC[C@]3(C)[C@@H]2[C@H](O)C[C@@H]2[C@@]4(C)CC[C@H](O)C(C)(C)[C@@H]4[C@@H](O)C[C@]23C)O1 [Panaxatriol, panaxatriol] | 34.9 ± 6.16 | – | – | – | – |
| CC(C)=CCC[C@](C)(O[C@@H]1O[C@H](CO)[C@@H](O)[C@H](O)[C@H]1O)C1CC[C@]2(C)C1[C@H](O)CC1[C@@]3(C)CC[C@H](O)C(C)(C)C3[C@@H](O[C@@H]3O[C@H](CO)[C@@H](O)[C@H](O)[C@H]3O[C@@H]3OC[C@@H](O)[C@H](O)[C@H]3O)C[C@]12C (some centres unmarked) [R1, ginsenoside R1] | > 100 | – | – | > 100 | – |
| CC(C)=CCC[C@](C)(O[C@@H]1O[C@H](CO[C@@H]2O[C@H](CO)[C@@H](O)[C@H](O)[C@H]2O)[C@@H](O)[C@H](O)[C@H]1O)[C@H]1CC[C@]2(C)[C@@H]1[C@H](O)C[C@@H]1[C@@]3(C)CC[C@H](O[C@@H]4O[C@H](CO)[C@@H](O)[C@H](O)[C@H]4O[C@@H]4O[C@H](CO)[C@@H](O)[C@H](O)[C@H]4O)C(C)(C)[C@@H]3CC[C@]12C [Rb1] | > 100 | – | hardly inhibit | > 100 | inhibition of hCES1A-mediated DME hydrolysis (residual activity screen) (hCES1A): hardly inhibit |
| CC(C)=CCC[C@](C)(O[C@@H]1O[C@H](CO[C@@H]2OC[C@H](O)[C@H](O)[C@H]2O)[C@@H](O)[C@H](O)[C@H]1O)[C@H]1CC[C@]2(C)[C@@H]1[C@H](O)C[C@@H]1[C@@]3(C)CC[C@H](O[C@@H]4O[C@H](CO)[C@@H](O)[C@H](O)[C@H]4O[C@@H]4O[C@H](CO)[C@@H](O)[C@H](O)[C@H]4O)C(C)(C)[C@@H]3CC[C@]12C [Rb2] | > 100 | – | hardly inhibit | > 100 | inhibition of hCES1A-mediated DME hydrolysis (residual activity screen) (hCES1A): hardly inhibit |
| CC(C)=CCC[C@](C)(O[C@@H]1O[C@H](CO[C@@H]2OC[C@@H](O)[C@H](O)[C@H]2O)[C@@H](O)[C@H](O)[C@H]1O)[C@H]1CC[C@]2(C)[C@@H]1[C@H](O)C[C@@H]1[C@@]3(C)CC[C@H](O[C@@H]4O[C@H](CO)[C@@H](O)[C@H](O)[C@H]4O[C@@H]4O[C@H](CO)[C@@H](O)[C@H](O)[C@H]4O)C(C)(C)[C@@H]3CC[C@]12C [Rb3] | > 100 | – | hardly inhibit | > 100 | inhibition of hCES1A-mediated DME hydrolysis (residual activity screen) (hCES1A): hardly inhibit |
| CC(C)=CCC[C@](C)(O[C@@H]1O[C@H](CO[C@@H]2O[C@@H](CO)[C@H](O)[C@H]2O)[C@@H](O)[C@H](O)[C@H]1O)[C@H]1CC[C@]2(C)[C@@H]1[C@H](O)C[C@@H]1[C@@]3(C)CC[C@H](O[C@@H]4O[C@H](CO)[C@@H](O)[C@H](O)[C@H]4O[C@@H]4O[C@H](CO)[C@@H](O)[C@H](O)[C@H]4O)C(C)(C)[C@@H]3CC[C@]12C [Rc] | > 100 | >1.22 | – | – | – |
| CC(C)=CCC[C@](C)(O[C@@H]1O[C@H](CO)[C@@H](O)[C@H](O)[C@H]1O)[C@H]1CC[C@]2(C)[C@@H]1[C@H](O)C[C@@H]1[C@@]3(C)CC[C@H](O[C@@H]4O[C@H](CO)[C@@H](O)[C@H](O)[C@H]4O[C@@H]4O[C@H](CO)[C@@H](O)[C@H](O)[C@H]4O)C(C)(C)[C@@H]3CC[C@]12C [Rd] | > 100 | > 7.12 | – | – | – |
| CC(C)=CCC[C@](C)(O[C@@H]1O[C@H](CO)[C@@H](O)[C@H](O)[C@H]1O)[C@H]1CC[C@]2(C)[C@@H]1[C@H](O)C[C@@H]1[C@@]3(C)CC[C@H](O)C(C)(C)[C@@H]3[C@@H](O[C@@H]3O[C@H](CO)[C@@H](O)[C@H](O)[C@H]3O[C@@H]3O[C@@H](C)[C@H](O)[C@@H](O)[C@H]3O)C[C@]12C [Re, ginsenoside Re] | > 100 | – | hardly inhibit | > 100 | inhibition of hCES1A-mediated DME hydrolysis (residual activity screen) (hCES1A): hardly inhibit |
| CC(C)=CCC[C@](C)(O[C@@H]1O[C@H](CO)[C@@H](O)[C@H](O)[C@H]1O)[C@H]1CC[C@]2(C)[C@@H]1[C@H](O)C[C@@H]1[C@@]3(C)CC[C@H](O)C(C)(C)[C@@H]3[C@@H](O[C@@H]3O[C@H](CO)[C@@H](O)[C@H](O)[C@H]3O)C[C@]12C [Rg1, ginsenoside Rg1] | > 100 | – | hardly inhibit | > 100 | inhibition of hCES1A-mediated DME hydrolysis (residual activity screen) (hCES1A): hardly inhibit |
| CC(C)=CCC[C@](C)(O)[C@H]1CC[C@]2(C)[C@@H]1[C@H](O)C[C@@H]1[C@@]3(C)CC[C@H](O)C(C)(C)[C@@H]3[C@@H](O[C@@H]3O[C@H](CO)[C@@H](O)[C@H](O)[C@H]3O[C@@H]3O[C@@H](C)[C@H](O)[C@@H](O)[C@H]3O)C[C@]12C [Rg2, ginsenoside Rg2] | > 100 | – | hardly inhibit | > 100 | inhibition of hCES1A-mediated DME hydrolysis (residual activity screen) (hCES1A): hardly inhibit |
| CC(C)=CCC[C@](C)(O)C1CC[C@]2(C)C1[C@H](O)CC1[C@@]3(C)CC[C@H](O[C@@H]4O[C@H](CO)[C@@H](O)[C@H](O)[C@H]4O[C@@H]4O[C@H](CO)[C@@H](O)[C@H](O)[C@H]4O)C(C)(C)C3CC[C@]12C (some centres unmarked) [Rg3] | > 100 | > 9.64 | – | – | – |
| CC(C)=CCC[C@](C)(O)[C@H]1CC[C@]2(C)[C@@H]1[C@H](O)C[C@@H]1[C@@]3(C)CC[C@H](O)C(C)(C)[C@@H]3[C@@H](O[C@@H]3O[C@H](CO)[C@@H](O)[C@H](O)[C@H]3O)C[C@]12C [Rh1, ginsenoside Rh1] | – | – | – | – | IC50 (hCES1A): > 100 µM; IC50 (hCES2A): > 100 µM |
| CC(C)=CCC[C@](C)(O)[C@H]1CC[C@]2(C)[C@@H]1[C@H](O)C[C@@H]1[C@@]3(C)CC[C@H](O[C@@H]4O[C@H](CO)[C@@H](O)[C@H](O)[C@H]4O)C(C)(C)[C@@H]3CC[C@]12C [Rh2] | – | > 18.86 | – | – | IC50 (hCES1A): > 100 µM |
| CC(C)=CC/C=C(\C)[C@H]1CC[C@]2(C)[C@@H]1[C@H](O)C[C@@H]1[C@@]3(C)CC[C@H](O)C(C)(C)[C@@H]3[C@@H](O[C@@H]3O[C@H](CO)[C@@H](O)[C@H](O)[C@H]3O)C[C@]12C [Rh4] | > 100 | – | – | – | – |
| CC1(C)CCC2(C(=O)OC3OC(CO)C(O)C(O)C3O)CCC3(C)C(=CCC4C5(C)CCC(OC6OC(C(=O)O)C(O)C(O)C6OC6OC(CO)C(O)C(O)C6O)C(C)(C)C5CCC43C)C2C1 (centres unmarked) [Ro] | > 100 | – | – | > 100 | – |
| CC1(C)CC[C@]2(C(=O)O)CC[C@]3(C)C(=CC[C@@H]4[C@@]5(C)CC[C@H](O)C(C)(C)[C@@H]5CC[C@]43C)[C@@H]2C1 [oleanic acid, reference compound] | 0.1 | – | – | – | – |
